We go through nine molecules from BindingDB's records for doi:10.1021/jm0002782 (Abbott Laboratories, 2000).

SMILES strings stand for the structures.

A short description of one assay: Evaluated for its ability to block the adherence of JY-8 cells to immobilized ICAM-1.
On to `O=C(/C=C/c1ccc(Sc2ccc(Cl)cc2Cl)c(Cl)c1)NCCCN1CCCC1=O` [3-[3-Chloro-4-(2,4-dichloro-phenylsulfanyl)-phenyl]-N-[3-(2-oxo-pyrrolidin-1-yl)-propyl]-acrylamide], for which the IC50 is 0.7 µM.

Assay in another assay: as above
The source holds these as a separate data set.
`CC(=O)N1CCN(C(=O)/C=C/c2ccc(Sc3ccc(Cl)cc3Cl)c(Cl)c2)CC1` [1-(4-Acetyl-piperazin-1-yl)-3-[3-chloro-4-(2,4-dichloro-phenylsulfanyl)-phenyl]-propenone]: the midpoint of inhibition, the IC50, lay at 0.24 µM.

Regarding `CC(=O)N1CCN(C(=O)/C=C/c2ccc(Sc3ccc(Cl)cc3Cl)c([N+](=O)[O-])c2)CC1` [1-(4-Acetyl-piperazin-1-yl)-3-[4-(2,4-dichloro-phenylsulfanyl)-3-nitro-phenyl]-propenone], the IC50 is 0.063 µM.

Take `CCc1ccccc1Sc1ccc(/C=C/C(=O)N2CCN(C(C)=O)CC2)cc1[N+](=O)[O-]` [1-(4-Acetyl-piperazin-1-yl)-3-[4-(2-ethyl-phenylsulfanyl)-3-nitro-phenyl]-propenone]: inhibition was half-maximal at 0.1 µM (IC50).

`O=C(/C=C/c1ccccc1Sc1ccc(Cl)cc1Cl)N1CCOCC1` [3-[2-(2,4-Dichloro-phenylsulfanyl)-phenyl]-1-morpholin-4-yl-propenone] displayed an IC50 of 5.3 µM.

`O=C(/C=C/c1ccccc1Sc1ccc(Cl)cc1Cl)NCCCCCCO` [3-[2-(2,4-Dichloro-phenylsulfanyl)-phenyl]-N-(6-hydroxy-hexyl)-acrylamide] gave an IC50 of 2.1 µM.

Turning to `O=C(/C=C/c1ccc(Sc2ccc(Cl)cc2Cl)c([N+](=O)[O-])c1)NCCCN1CCCC1=O` [3-[4-(2,4-Dichloro-phenylsulfanyl)-3-nitro-phenyl]-N-[3-(2-oxo-pyrrolidin-1-yl)-propyl]-acrylamide], the IC50 turned out to be 0.14 µM.

With `O=C(/C=C/c1ccc(Sc2ccccc2/C=C/C(=O)N2CCOCC2)c(Cl)c1)N1CCOCC1` [3-{3-Chloro-4-[2-(3-morpholin-4-yl-3-oxo-propenyl)-phenylsulfanyl]-phenyl}-1-morpholin-4-yl-propenone], the IC50 amounted to 0.19 µM.

For `O=C(/C=C/c1ccc(Sc2ccccc2CN2CCN(Cc3ccc4c(c3)OCO4)CC2)c(Cl)c1)N1CCOCC1` [3-{4-[2-(4-Benzo[1,3]dioxol-5-ylmethyl-piperazin-1-ylmethyl)-phenylsulfanyl]-3-chloro-phenyl}-1-morpholin-4-yl-propenone], the IC50 was 0.36 µM.
